Experimental data reported in patent US7858621B2 (Amorepacific Corporation, priority 2006, dated 2010).

Target: T1, vanilloid receptor (Rattus norvegicus, UniProt O35433)
T1 construct: DRG nerve cells from the primary culture of 2 days were equilibrated; endogenous in cells; host or cells: primary culture of dorsal root ganglion neurons from neonatal SD rats
Assay: 45Ca influx test in cultured neonatal rat DRG neurons, inhibition of capsaicin response
Format: cell-based
Details: neonatal rat DRG neurons, capsaicin 0.5 μM, 45Ca influx; read-out: Antagonist Calcium Uptake Test (IC50)
Outline: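 45Ca influx measured by scintillation counting of SDS-eluted neurons after 10 min at room temperature with test compound, 0.5 μM capsaicin (final) and 10 μCi/ml 45Ca in Ca/Mg-free HEPES-HBSS pH 7.4. Cells: primary DRG neurons from newborn SD rats, cultured 2 days with NGF and Ara-C.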

T1 sequence (O35433 whole entry): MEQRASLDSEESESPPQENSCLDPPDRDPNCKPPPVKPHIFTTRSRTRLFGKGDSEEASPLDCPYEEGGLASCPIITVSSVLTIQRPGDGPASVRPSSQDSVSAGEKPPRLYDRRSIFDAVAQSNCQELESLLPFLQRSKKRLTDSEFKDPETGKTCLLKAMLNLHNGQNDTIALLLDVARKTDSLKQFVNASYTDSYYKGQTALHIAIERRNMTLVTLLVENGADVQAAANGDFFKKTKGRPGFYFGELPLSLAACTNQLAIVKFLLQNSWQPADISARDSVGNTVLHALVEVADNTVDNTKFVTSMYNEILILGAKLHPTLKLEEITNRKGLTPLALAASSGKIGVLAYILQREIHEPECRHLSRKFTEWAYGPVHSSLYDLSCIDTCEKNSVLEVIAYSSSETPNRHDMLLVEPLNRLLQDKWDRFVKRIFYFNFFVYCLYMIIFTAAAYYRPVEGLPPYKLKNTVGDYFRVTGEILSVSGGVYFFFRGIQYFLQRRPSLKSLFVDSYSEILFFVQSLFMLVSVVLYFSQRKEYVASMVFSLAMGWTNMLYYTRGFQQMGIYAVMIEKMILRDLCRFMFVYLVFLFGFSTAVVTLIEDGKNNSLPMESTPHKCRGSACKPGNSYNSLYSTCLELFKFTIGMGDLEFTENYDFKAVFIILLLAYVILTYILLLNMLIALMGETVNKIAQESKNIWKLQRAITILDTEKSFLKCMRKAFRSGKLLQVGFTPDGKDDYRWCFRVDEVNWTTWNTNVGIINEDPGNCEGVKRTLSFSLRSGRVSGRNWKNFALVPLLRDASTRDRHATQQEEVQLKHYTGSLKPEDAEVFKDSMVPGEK

Structure (SMILES)	IC50
COCCOc1nc(C(F)(F)F)ccc1/C=C/C(=O)NCc1cc(F)c(NS(C)(=O)=O)c(C#N)c1 [Example 99, N-(3-Cyano-5-fluoro-4-methanesulfonylamino-benzyl)-3-[2-(2-methoxy-ethoxy)-6-trifluoromethyl-pyridin-3-yl]-acrylamide]	1.8 µM
C#Cc1cc(CNC(=O)/C=C/c2ccc(C(C)(C)C)nc2Br)cc(F)c1NS(C)(=O)=O [Example 37, 3-(2-Bromo-6-tert-butyl-pyridin-3-yl)-N-(3-ethynyl-5-fluoro-4-methanesulfonylamino-benzyl)-acrylamide]	0.059 µM
CCC/C(=C\C(=O)N[C@H](C)c1cc(F)c(NS(C)(=O)=O)c(F)c1)c1ccc(C(F)(F)F)nc1CCC [Example 278, (E)-3-(2-Propyl-6-trifluoromethyl-pyridin-3-yl)-hex-2-enoic acid [1-(3,5-difluoro-4-methanesulfonylamino-phenyl)-ethyl]-amide]	0.16 µM
Cc1cc(CNC(=O)/C=C/c2ccc(C(F)(F)F)nc2N2CCOCC2)cc(F)c1NS(C)(=O)=O [Example 8, N-(3-Fluoro-4-methanesulfonylamino-5-methyl-benzyl)-3-(2-morpholin-4-yl-6-trifluoromethyl-pyridin-3-yl)-acrylamide]	0.42 µM
C#Cc1cc(CNC(=O)/C=C/c2ccc(C(F)(F)F)nc2N(C)C)cc(F)c1NS(C)(=O)=O [Example 94, 3-(2-Dimethylamino-6-trifluoromethyl-pyridin-3-yl)-N-(3-ethynyl-5-fluoro-4-methanesulfonylamino-benzyl)-acrylamide]	0.59 µM
CCNc1nc(C(F)(F)F)ccc1/C=C/C(=O)NCc1cc(C)c(NS(C)(=O)=O)c(F)c1 [Example 258, 3-(2-Ethylamino-6-trifluoromethyl-pyridin-3-yl)-N-(3-fluoro-4-methanesulfonylamino-5-methyl-benzyl)-acrylamide]	0.021 µM
CCCCc1nc(C(F)(F)F)ccc1C#CC(=O)NCc1cc(C)c(NS(C)(=O)=O)c(F)c1 [Example 273, 3-(2-Butyl-6-trifluoromethyl-pyridin-3-yl)-propynoic acid 3-fluoro-4-methanesulfonylamino-5-methyl-benzylamide]	0.84 µM
COCC#Cc1nc(C(F)(F)F)ccc1/C=C/C(=O)NCc1ccc(NS(C)(=O)=O)c(F)c1 [Example 154, N-(3-Fluoro-4-methanesulfonylamino-benzyl)-3-[2-(3-methoxy-prop-1-ynyl)-6-trifluoromethyl-pyridin-3-yl]-acrylamide]	2.1 µM
CCC(C)Nc1nc(C(F)(F)F)ccc1/C=C/C(=O)NCc1ccc(NS(C)(=O)=O)c(C)c1 (stereo not shown) [Example 176, 3-(2-sec-Butylamino-6-trifluoromethyl-pyridin-3-yl)-N-(4-methanesulfonylamino-3-methyl-benzyl)-acrylamide]	0.057 µM
CC[C@@H](C)c1nc(C(F)(F)F)ccc1/C=C/C(=O)NCc1ccc(NS(C)(=O)=O)c(C)c1 [Example 241, (R)-3-(2-sec-Butyl-6-trifluoromethyl-pyridin-3-yl)-N-1-(4-methanesulfonylamino-3-methyl-benzyl)-acrylamide]	0.034 µM
C#Cc1cc(CNC(=O)/C=C/c2ccc(C(F)(F)F)nc2OC(C)CC)cc(F)c1NS(C)(=O)=O (stereo not shown) [Example 77, 3-(2-sec-Butoxy-6-trifluoromethyl-pyridin-3-yl)-N-(3-ethynyl-5-fluoro-4-methanesulfonylamino-benzyl)-acrylamide]	0.34 µM
CCCc1nc(C(F)(F)F)ccc1/C=C/C(=O)N[C@H](C)c1ccc(NS(C)(=O)=O)c(F)c1 [Example 209, (R)-3-(2-Propyl-6-trifluoromethyl-pyridin-3-yl)-N-[1-(3-fluoro-4-methanesulfonylamino-phenyl)-ethyl]-acrylamide]	0.087 µM
CCOC(=O)C1CCN(c2nc(C(F)(F)F)ccc2/C=C/C(=O)NCc2ccc(NS(C)(=O)=O)c(F)c2)CC1 [Example 95, N-(3-Fluoro-4-methanesulfonylamino-benzyl)-3-[2-(4-ethoxycarbonyl-piperid-1-yl)-6-trifluoromethyl-pyridin-3-yl]-acrylamide]	0.55 µM
COc1cc(C(F)(F)F)c(/C=C/C(=O)NCc2ccc(NS(C)(=O)=O)c(F)c2)cn1 [Example 43, N-(3-Fluoro-4-methanesulfonylaminobenzyl)-3-(6-methoxy-4-trifluoromethylpyridin-3-yl)acrylamide]	9.2 µM
C#Cc1cc(CNC(=O)/C=C/c2ccc(C(F)(F)F)nc2NCC)cc(F)c1NS(C)(=O)=O [Example 249, 3-(2-Ethylamino-6-trifluoromethyl-pyridin-3-yl)-N-(3-ethynyl-5-fluoro-4-methanesulfonylamino-benzyl)-acrylamide]	0.025 µM
Cc1cc(CNC(=O)/C=C/c2ccc(C(F)(F)F)nc2CC(C)C)ccc1NS(C)(=O)=O [Example 174, 3-(2-Isobutyl-6-trifluoromethyl-pyridin-3-yl)-N-(4-methanesulfonylamino-3-methyl-benzyl)-acrylamide]	0.07 µM
CCOC(=O)C1CCN(c2nc(C(F)(F)F)ccc2/C=C/C(=O)NCc2cc(F)c(NS(C)(=O)=O)c(C#N)c2)CC1 [Example 111, N-(3-Cyano-5-fluoro-4-methansulfonylamino-benzyl)-3-[2-(4-ethoxycarbonyl-piperid-1-yl)-6-trifluoromethyl-pyridin-3-yl]-acrylamide]	0.82 µM
CS(=O)(=O)Nc1c(F)cc(CNC(=O)/C=C/c2ccc(C(F)(F)F)nc2N2CCOCC2)cc1C(F)(F)F [Examples 22]	3.3 µM
C#Cc1cc(CNC(=O)/C=C/c2ccc(C(F)(F)F)nc2OC2CCCC2)cc(F)c1NS(C)(=O)=O [Example 92, 3-(2-Cyclopentoxy-6-trifluoromethyl-pyridin-3-yl)-N-(3-ethynyl-5-fluoro-4-methanesulfonylamino-benzyl)-acrylamide]	0.52 µM
CCCCc1nc(C(F)(F)F)ccc1C#CC(=O)NCc1ccc(NS(C)(=O)=O)cc1Cl [Example 263, 3-(2-Butyl-6-trifluoromethyl-pyridin-3-yl)-propynoic acid 2-chloro-4-methanesulfonylamino-benzylamide]	4.7 µM
CC(C)Sc1nc(C(F)(F)F)ccc1/C=C/C(=O)NCc1ccc(NS(C)(=O)=O)c(F)c1 [Example 178, N-(3-Fluoro-4-methanesulfonylamino-benzyl)-3-(2-isopropylthio-6-trifluoromethyl-pyridin-3-yl)-acrylamide]	0.92 µM
C#Cc1cc(CNC(=O)/C=C(/CCC)c2ccc(C(F)(F)F)nc2CCC)cc(F)c1NS(C)(=O)=O [Example 275]	0.31 µM
C#Cc1cc(CNC(=O)/C=C/c2ccc(C(F)(F)F)nc2NC2CCCC2)cc(F)c1NS(C)(=O)=O [Example 73, 3-(2-Cyclopentylamino-6-trifluoromethyl-pyridin-3-yl)-N-(3-ethynyl-5-fluoro-4-methanesulfonylamino-benzyl)-acrylamide]	0.15 µM
C#Cc1cc(CNC(=O)/C=C/c2ccc(C(F)(F)F)nc2N2CCC(C(=O)OCC)CC2)cc(F)c1NS(C)(=O)=O [Example 110, AT-(3-Ethynyl-5-fluoro-4-methansulfonylamino-benzyl)-3-[2-(4-ethoxycarbonyl-piperid-1-yl)-6-trifluoromethyl-pyridin-3-yl]-acrylamide]	0.58 µM
CS(=O)(=O)Nc1ccc(CNC(=O)/C=C/c2ccc(C(F)(F)F)nc2)cc1F [Example 58, N-(3-Fluoro-4-methanesulfonylamino-benzyl)-3-(6-trifluoromethyl-pyridin-3-yl)-acrylamide]	> 10 µM
